The source of these data is BindingDB's records for doi:10.1021/jm030438k (Harvard Medical School, 2004).

SMILES strings stand for the structures.

For one experiment, the target named is T1, Dihydrofolate reductase (Homo sapiens, UniProt P00374).
T1 sequence (P00374 whole entry): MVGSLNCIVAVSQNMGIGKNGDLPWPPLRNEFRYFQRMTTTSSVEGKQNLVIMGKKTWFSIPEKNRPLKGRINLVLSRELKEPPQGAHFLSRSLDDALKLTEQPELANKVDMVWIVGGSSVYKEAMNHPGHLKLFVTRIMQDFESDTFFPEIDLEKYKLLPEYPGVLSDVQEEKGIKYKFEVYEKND
Put plainly: Inhibitory concentration against dihydrofolate reductase of rat liver.

Experiment [1] addresses Dihydrofolate reductase (Homo sapiens) (UniProt P00374). Put plainly: Inhibitory concentration against dihydrofolate reductace enzyme of humans.

In the case of `COc1cc(Cc2cnc3nc(N)nc(N)c3c2C)cc(OC)c1` [6-(3,5-Dimethoxy-benzyl)-5-methyl-pyrido[2,3-d]pyrimidine-2,4-diamine], the IC50 against Dihydrofolate reductase worked out at 1.5 nM.

`Cc1ccc(Cl)cc1Cc1cnc2nc(N)nc(N)c2c1C` [6-(5-Chloro-2-methyl-benzyl)-5-methyl-pyrido[2,3-d]pyrimidine-2,4-diamine] came in with an IC50 in experiment [1] of 2.8 nM.

As usually defined, the IC50 is the point on the concentration scale where inhibition reaches its midpoint. A higher IC50 goes with lower potency.
